Source: patent US6359054B1, “Polynucleotide compositions for intramuscular administration” (priority 1994, dated 2002)
“And” between values parts separate entries of the source, which are not always exact repeats. Equal entries are not always repeated. {C11P} = undecylphosphate group; {Acr} = acridine conjugate

What was measured:
[1] = test system: HSV-1; test: HSV-1 infectivity of medium of infected BHK cells; type: cell-based, Herpes Simplex Virus 1; details: oligonucleotide 3.0 μM
[2] = test system: HSV-1; set-up: species or system mice; details: mouse, in vivo

Substance: Free Anti-HSV: 12-chain oligonucleotide CGTTCCTCCTGU, 5′ undecylphosphate and 3′ acridine modified, complementary to HSV-1 splicing site (5' {C11P}, 3' {Acr}, sugars by position and backbone not given here)
- HSV-1 infectious titre n = 7 [1]: 50(±14) × 10^2 CPE50/ml
- % Survival [2]: 7.0%
- Survived animals/Amount of Animals in a group [2]: 1/10 and 0/10
